Measured values published in patent US20250114431A1, “COMPOUND, COMPOSITION AND METHODS FOR LOWERING CIRCULATING GLUCOSE” (THE HONG KONG POLYTECHNIC UNIVERSITY, priority 2023, published 2025).

System: MIN6 pancreatic beta cells
Assay: Glucose stimulated insulin secretion assay in MIN6 cells (mouse insulin ELISA)
Type: cell-based
Conditions: 100 nM, positive control; FIG. 5A
Protocol: To verify that the glucose homeostasis is regulated through liver or hepatocytes by overexpression of Plac9 in an insulin-independent manner, an in vitro insulin secretion assay was performed on confluent pancreatic beta cells, MIN6, in each well treated by […] of Exendin-4 or different concentrations of recombinant Plac9 of mouse origin at 10, 100 and 1000 nM (n=8) and measured the insulin content of each well by a mouse insulin ELISA kit. […] A glucose uptake assay was performed on primary hepatocytes and hepatic cell line, HepG2, treated with different concentrations (from 0.125 or 0.25 to 1.0 μM) in the presence or absence of exogenous 10 nM insulin, and the results are shown in FIGS. 5B and 5C, respectively.

Exendin-4 [reference compound]
insulin secretion: significantly induces insulin secretion
